Data: patent publication US20230247992A1, “ARTHROPOD CONTROL COMPOSITION” (Firmenich SA, priority 2020, published 2023)

What was measured:
[1] = tested on: Aedes aegypti; assay: in vivo Arm-in-cage assay on human volunteers; settings: for decrease of the percentage of mosquito landing on the arm: 20% applied on arm skin (600 cm^2), three volunteers
Protocol: The controlling effect, repellence & spatial repellence, according to the present invention is also determined according to an arm in the box method adapted from the WHO Guidelines for efficacy testing of mosquito repellents for human skin (WHO/CDS/NTD/WHOPES/2009.4). […] Further information is provided in the accompanying examples.
The Arm in the box method was adapted from the WHO Guidelines for efficacy testing of mosquito repellents for human skin (WHO/CDS/NTD/WHOPES/2009.4). The readiness of 100 hungry female mosquitoes A. aegypti to probe is assessed by inserting an untreated arm into the cage (40×40×40 cm) for 30 seconds (negative control) three times (once at the beginning, once at the fourth hour and once at the eighth hour), to determine probing activity. Then, the product is applied onto the skin of the forearm of a human volunteer (1 mL per 600 cm^2) and after 5 minutes, this arm is inserted into the cage and exposed for 3 minutes. The assay take place in temperature (27±2° C.) and humidity (80±10%RH) regulated room on three different volunteers.
Arm-in-cage test is a compulsory assay for most biocide registrations to assess the efficacy of a substance. It is a very challenging test as the treated arm of a volunteer is being placed in a space containing a density of […] blood hungry mosquitoes / m^3 of air.

[2] = tested on: Aedes aegypti; assay: in vitro Warm Body assay, substance applied on glass Petri dish on top of the warm body (deterrence and repellence); assay type: in vivo
[3] = tested on: Ixodes ricinus; assay: whole plant or invertebrate; assay type: in vivo; settings: for pest or weed control at 1 µg/cm2, 1 µg/cm2 / pest or weed control at 5 µg/cm2, 5 µg/cm2 / pest or weed control at 25 µg/cm2, 25 µg/cm2: Ixodes ricinus, read-out: mean percentage of ticks affected
[4] = tested on: Aedes aegypti; assay: in vitro Warm Body assay, substance introduced in the cage air by forced evaporation (spatial repellence); assay type: in vivo
[5] = 0.04% in ethanol, ethanol control 59.3±6.9 landings
[6] = 1% in ethanol, ethanol control 59.3±6.9 landings
[7] = […] in ethanol, ethanol control 59.3±6.9 landings
[8] = 0.0017 µg/L air, without substance 54.7±3.2
[9] = 0.017 µg/L air, without substance 54.7±3.2
[10] = 0.17 µg/L air, without substance 54.7±3.2
[11] = 1.7 µg/L air, without substance 54.7±3.2
[12] = 17 µg/L air, without substance 54.7±3.2

Structure (SMILES) | number of mosquitoes landing within 2 minutes on the warm body [2, 5] | number of mosquitoes landing within 2 minutes on the warm body [2, 6] | number of mosquitoes landing within 2 minutes on the warm body [2, 7] | pest or weed control at 1 µg/cm2, 1 µg/cm2 [3] | pest or weed control at 5 µg/cm2, 5 µg/cm2 [3] | pest or weed control at 25 µg/cm2, 25 µg/cm2 [3] | number of mosquitoes landing within 2 minutes on the warm body, air in the cage saturated with stimulus [4, 8] | number of mosquitoes landing within 2 minutes on the warm body, air in the cage saturated with stimulus [4, 9] | number of mosquitoes landing within 2 minutes on the warm body, air in the cage saturated with stimulus [4, 10] | number of mosquitoes landing within 2 minutes on the warm body, air in the cage saturated with stimulus [4, 11] | number of mosquitoes landing within 2 minutes on the warm body, air in the cage saturated with stimulus [4, 12] | also measured
COc1cc(C=O)ccc1O [4-hydroxy-3-methoxybenzaldehyde] | 9.0 | 3.0 | 19.0 | 14% | 44% | 73% | 17.0 | 9.0 | 1.5 | 3.5 | 1.0 | decrease of the percentage of mosquito landing on the arm ([1]; 5 min post-application): 82±5.2%; decrease of the percentage of mosquito landing on the arm ([1]; 1 h post-application): 78±2.6%; decrease of the percentage of mosquito landing on the arm ([1]; 2 h post-application): 66±8.0%; decrease of the percentage of mosquito landing on the arm ([1]; 3 h post-application): 61±6%; decrease of the percentage of mosquito landing on the arm ([1]; 4 h post-application): 63±2%
CCCCCC1CCCC(=O)O1 (stereo not shown) [6-pentyloxan-2-one] | – | – | – | – | – | – | – | – | – | – | – | repellence in the arm-in-cage test ([1]; maintained for more than 4h (FIG. 3)): above 75%; number of mosquitoes landing within 2 minutes on the warm body ([2]; 0.04% in ethanol, ethanol control 67.0±8.8 landings): 7.0; number of mosquitoes landing within 2 minutes on the warm body ([2]; 1% in ethanol, ethanol control 67.0±8.8 landings): 2.0; number of mosquitoes landing within 2 minutes on the warm body ([2]; […] in ethanol, ethanol control 67.0±8.8 landings): 90.0; number of mosquitoes landing within 2 minutes on the warm body, air in the cage saturated with stimulus ([4]; 0.0017 µg/L air, without substance 54.1±4.9): 43.0; number of mosquitoes landing within 2 minutes on the warm body, air in the cage saturated with stimulus ([4]; 0.017 µg/L air, without substance 54.1±4.9): 4.0; number of mosquitoes landing within 2 minutes on the warm body, air in the cage saturated with stimulus ([4]; 0.17 µg/L air, without substance 54.1±4.9): 28.0; number of mosquitoes landing within 2 minutes on the warm body, air in the cage saturated with stimulus ([4]; 1.7 µg/L air, without substance 54.1±4.9): 0.5; number of mosquitoes landing within 2 minutes on the warm body, air in the cage saturated with stimulus ([4]; 17 µg/L air, without substance 54.1±4.9): 0.0
O=c1ccc2ccccc2o1 [chromen-2-one] | 0.0 | 1.0 | 118.0 | 27% | 71% | 80% | 36.0 | 3.0 | 10.0 | 1.0 | 0.0 | tick response compared with the benchmark IR3535 ([3]; concentrations tested): response similar to the benchmark IR3535
